Assay results from patent US20230096028A1, “BICYCLIC HETEROCYCLYL COMPOUNDS AND USES THEREOF” (Revolution Medicines, Inc., priority 2019, published 2023).

How the values were obtained:
[1] = test system: PC-9 cells (EGFR Ex19Del); test: Potency Assay: pERK (SOS1 pERK IC50 Assay, AlphaLISA SureFire Ultra p-ERK1/2); type: cell-based; conditions: Homo sapiens; PC-9 cells (EGFR Ex19Del), 1 hour incubation, AlphaLISA p-ERK1/2; read-out: SOS1 pERK IC50
Outline: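 Cellular pERK1/2 by AlphaLISA SureFire Ultra after 1 h compound exposure (37° C., highest concentration 10 μM, 3-fold steps, duplicates) of EGFR Ex19Del PC-9 cells seeded the day before. A 4-parameter fit of signal versus log concentration gives IC50.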

[2] = target: T1, SOS1 catalytic domain (residues 564-1049) (Homo sapiens, UniProt Q07889); test: Mode of Action Assay: inhibition of SOS1 nucleotide exchange activity (SOS1 TR-FRET IC50 Assay)
T1 sequence (Q07889 564-1049): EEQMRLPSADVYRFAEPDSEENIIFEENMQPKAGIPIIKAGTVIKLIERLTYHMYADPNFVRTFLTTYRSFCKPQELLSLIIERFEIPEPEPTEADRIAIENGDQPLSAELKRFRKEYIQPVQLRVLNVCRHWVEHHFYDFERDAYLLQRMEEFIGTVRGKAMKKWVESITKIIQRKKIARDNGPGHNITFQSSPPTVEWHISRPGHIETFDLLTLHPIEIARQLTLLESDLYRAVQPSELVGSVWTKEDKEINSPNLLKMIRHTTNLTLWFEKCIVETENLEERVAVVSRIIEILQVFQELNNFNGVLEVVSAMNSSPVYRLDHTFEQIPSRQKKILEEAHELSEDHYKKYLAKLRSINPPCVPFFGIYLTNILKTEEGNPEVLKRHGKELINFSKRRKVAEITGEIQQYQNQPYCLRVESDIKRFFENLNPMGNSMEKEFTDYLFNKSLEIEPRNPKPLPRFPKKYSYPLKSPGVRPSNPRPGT

[3] = target: T1, SOS1 catalytic domain (residues 564-1049); test: Potency Assay: binding affinity to SOS1 using Surface Plasmon Resonance (SPR); parameters: SOS1 catalytic domain (residues 564-1049) immobilized on a sensor chip; conditions: immobilized SOS1 catalytic domain (residues 564-1049), read-out: SOS1 SPR Equilibrium Kd
Procedure: Data was reported as equilibrium dissociation constant (Kd) values.
Using a GE Biacore 8K SPR instrument, avi-tagged SOS1 catalytic domain protein was immobilized to a level of approximately 6000 response units (RU) on a streptavidin-coated SPR sensor chip in assay buffer containing 0.01 M HEPES, 0.15 M NaCl and 0.05% v/v Surfactant P20. […] For each test compound, a separate 0 μM sample was generated for use during subsequent double reference subtraction. Serially for each test compound, individual dilution samples were flowed over the immobilized SOS1 protein at a flow rate of 50 μL/minute to monitor the association with SOS1. Dissociation of bound test compound from the SOS1 protein was immediately monitored by flowing assay buffer over the sensor surface and monitoring the decrease in binding signal back to the baseline level seen in the absence of compound. This was repeated for all compound dilutions in each series. The binding level response for each test compound concentration was noted immediately prior to the end of the association phase, and a secondary plot generated showing binding response level versus test compound concentration generated for each compound dilution series.

IC50 [1] [nM] | IC50 [2] [nM] | Kd [3] [nM] | Compound
< 1000 | < 1000 | < 400 | C[C@@H](Nc1nc(Cl)nc2c1CN(C(=O)C1C3COCC31)C2)c1cc(N)cc(C(F)(F)F)c1 (stereo partly shown) [Example 94]
< 1000 | < 1000 | < 400 | COC1(C(=O)N2Cc3nc(Cl)nc(N[C@H](C)c4cccc(C(F)F)c4F)c3C2)CN(C)C1 [Example 324]
< 1000 | < 1000 | < 400 | C[C@@H](Nc1nc(Cl)nc2c1C[C@@H](N1CCOCC1)CC2)c1cccc(C(F)(F)CO)c1 [Example 436]
< 1000 | < 1000 | < 400 | C[C@@H](Nc1nc(Cl)nc2c1CN(C(=O)C1(CO)COC1)CC2)c1cc(N)cc(C(F)(F)F)c1 [Example 225]
> 1000 |  | < 400 | C[C@@H](Nc1nc(Cl)nc2c1CN(S(=O)(=O)C1CCNCC1)C2)c1cc(N)cc(C(F)(F)F)c1 [Example 187]
< 1000 | < 1000 | < 400 | CC(Nc1nc(Cl)nc2c1CN(C(=O)N1CCOCC1)C2)c1cccc(C(F)(F)CO)c1 (stereo not shown) [Example 171, [2-chloro-4-[1-[3-(1,1-difluoro-2-hydroxy-ethyl)phenyl]ethylamino]-5,7-dihydropyrrolo[3,4-d]pyrimidin-6-yl]-morpholino-methanone]
< 1000 | < 1000 | < 400 | C[C@@H](Nc1nc(Cl)nc2c1CN(C(=O)C1(C#N)CCN(C)CC1)C2)c1cccc(C(F)(F)F)c1 [Example 280]
< 1000 | > 1000 | < 400 | C[C@@H](Nc1nc(Cl)nc2c1CN(C(=O)c1ccc(OC(F)F)cn1)C2)c1cc(N)cc(C(F)(F)F)c1 [Example 61]
< 1000 | < 1000 | < 400 | C[C@@H](Nc1nc(Cl)nc2c1CN(C(=O)N1CCOc3cccnc31)C2)c1cc(N)cc(C(F)(F)F)c1 [Example 160]
> 1000 | < 1000 | < 400 | C[C@@H](Nc1nc(C2CN(C)C2)nc2c1CN(C(=O)N1CCOCC1)C2)c1cccc(C(F)F)c1F [Example 447, (R)-(4-((1-(3-(difluoromethyl)-2-fluorophenyl)ethyl)amino)-2-(1-methylazetidin-3-yl)-5,7-dihydro-6H-pyrrolo[3,4-d]pyrimidin-6-yl)(morpholino)methanone]
< 1000 | < 1000 | < 400 | C[C@@H](Nc1nc(Cl)nc2c1CN(C(=O)N1CCNc3ncccc31)C2)c1cccc(C(F)(F)F)c1 [Example 370]
< 1000 | < 1000 | < 400 | C[C@@H](Nc1nc(Cl)nc2c1CC(N1CCN(C3CC3)CC1)CC2)c1cccc(C(F)(F)CO)c1 (stereo partly shown) [Example 434]
< 1000 | < 1000 | < 400 | COc1nccnc1C(=O)N1Cc2nc(Cl)nc(N[C@H](C)c3cc(N)cc(C(F)(F)F)c3)c2C1 [Example 75]
> 1000 | < 1000 | < 400 | C[C@@H](Nc1nc(CO)nc2c1CN(C(=O)N1CCOCC1)C2)c1cccc(C(F)F)c1F [Example 348, (R)-(4-((1-(3-(difluoromethyl)-2-fluorophenyl)ethyl)amino)-2-(hydroxymethyl)-5,7-dihydro-6H-pyrrolo[3,4-d]pyrimidin-6-yl)(morpholino)methanone]
> 1000 | > 1000 | > 400 | C[C@@H](Nc1nc(Cl)nc2c1CN(C(=O)c1ncccn1)CC2)c1cc(N)cc(C(F)(F)F)c1 [Example 236]
< 1000 | < 1000 | < 400 | C[C@@H](Nc1nc(Cl)nc2c1CN(C(=O)N1CCS(=O)(=O)CC1)C2)c1cc(N)cc(C(F)(F)F)c1 [Example 148]

IC50 [1] [nM] | IC50 [2] [nM] | Kd [3] [nM] | Compound
> 1000 | > 1000 | > 400 | C[C@@H](Nc1nc(Cl)nc2c1CN(C(=O)c1ccccn1)CC2)c1cc(N)cc(C(F)(F)F)c1 [Example 247]
< 1000 | < 1000 | > 400 | C[C@@H](Nc1nc(Cl)nc2c1CN(C(=O)C1(O)COC1)C2)c1cccc(C(F)(F)F)c1 [Example 279]
< 1000 | < 1000 | > 400 | C[C@@H](Nc1nc(Cl)nc2c1CN(C(=O)c1cccc3c1OCCN3)C2)c1cc(N)cc(C(F)(F)F)c1 [Example 77]
< 1000 | < 1000 | < 400 | C[C@@H](Nc1nc(Cl)nc2c1CN(C(=O)C1(N)CCOCC1)C2)c1cccc(C(F)F)c1F [Example 287]
< 1000 | > 1000 | < 400 | C[C@@H](Nc1nc(Cl)nc2c1CN(C(=O)c1ccc(N3CCOCC3)cn1)C2)c1cc(N)cc(C(F)(F)F)c1 [Example 84]
> 1000 |  | < 400 | Cc1nc2c(c(N[C@H](C)c3cc(N)cc(C(F)(F)F)c3)n1)CN(C(=O)N1CC(O)C1)C2 [Example 352]
< 1000 |  | < 400 | CCc1cc(N)cc(C(C)Nc2nc(Cl)nc3c2CN(C(=O)N2CCOCC2)C3)c1 (stereo not shown) [Example 41, [4-[1-(3-amino-5-ethyl-phenyl)ethylamino]-2-chloro-5,7-dihydropyrrolo[3,4-d]pyrimidin-6-yl]-morpholino-methanone]
< 1000 |  | < 400 | CNCc1ccccc1-c1cccc(C(C)Nc2nc(Cl)nc3c2CN(C(=O)N2CCOCC2)C3)c1 (stereo not shown) [Example 32, [2-chloro-4-[1-[3-[2-(methylaminomethyl)phenyl]phenyl]ethylamino]-5,7-dihydropyrrolo[3,4-d]pyrimidin-6-yl]-morpholino-methanone]
< 1000 |  | < 400 | CNCc1ccccc1-c1ccc(C(C)Nc2nc(Cl)nc3c2CN(C(=O)N2CCOCC2)C3)s1 (stereo not shown) [Example 39, [2-chloro-4-[1-[5-[2-(methylaminomethyl)phenyl]-2-thienyl]ethylamino]-5,7-dihydropyrrolo[3,4-d]pyrimidin-6-yl]-morpholino-methanone]
< 1000 |  | < 400 | C[C@@H](Nc1nc(Cl)nc2c1CN(C1CCOCC1)CC2)c1cc(N)cc(C(F)(F)F)c1 [Example 22, N-[(1R)-1-[3-amino-5-(trifluoromethyl)phenyl]ethyl]-2-chloro-6-tetrahydropyran-4-yl-7,8-dihydro-5H-pyrido[4,3-d]pyrimidin-4-amine]
> 1000 |  | > 400 | C[C@@H](Nc1nnc(Cl)c2c1CN(C(=O)N1CCOCC1)C2)c1cc(N)cc(C(F)(F)F)c1 [Example 35, [1-[[(1R)-1-[3-amino-5-(trifluoromethyl)phenyl]ethyl]amino]-4-chloro-5,7-dihydropyrrolo[3,4-d]pyridazin-6-yl]-morpholino-methanone]
< 1000 |  | < 400 | Cc1nc2c(c(N[C@H](C)c3cc(N)cc(C(F)(F)F)c3)n1)CN(C(=O)N1CCN(C)CC1)C2 [Example 351]
> 1000 |  | > 400 | C[C@@H](Nc1nc(Cl)nc2c1CN(c1ncccc1N1CCOCC1)CC2)c1cc(N)cc(C(F)(F)F)c1 [Example 186, (R)—N-(1-(3-amino-5-(trifluoromethyl)phenyl)ethyl)-2-chloro-6-(3-morpholinopyridin-2-yl)-5,6,7,8-tetrahydropyrido[4,3-d]pyrimidin-4-amine]
> 1000 |  | > 400 | COc1cncc(C(=O)N2CCc3nc(Cl)nc(N[C@H](C)c4cc(N)cc(C(F)(F)F)c4)c3C2)n1 [Example 237]
 | > 1000 | > 400 | C[C@@H](Nc1nc(Cl)nc2c1CN(C(=O)c1cnccn1)C2)c1cc(N)cc(C(F)(F)F)c1 [Example 66]
